The NIST ThermoML archive (doi:10.1016/j.fluid.2011.11.011)
Numbers after ± are expanded uncertainties.

Experiment: an = ratio of the nth substance listed
Conditions: 275 K, Pendant drop shape

| surface tension liquid-gas (a1 = 500) [mN/m] | surface tension liquid-gas (a1 = 1000) [mN/m] | surface tension liquid-gas (a1 = 2000) [mN/m] | surface tension liquid-gas (a1 = 2500) [mN/m] | surface tension liquid-gas (a1 = 3000) [mN/m] | surface tension liquid-gas (a1 = 3500) [mN/m] | surface tension liquid-gas (a1 = 4000) [mN/m] | surface tension liquid-gas (a1 = 5000) [mN/m] | surface tension liquid-gas (a2 = 0) [mN/m] | Compound |
| --- | --- | --- | --- | --- | --- | --- | --- | --- | --- |
| 56.6 ± 1.8 | 53.1 ± 1.7 | 41.2 ± 1.3 | 38.9 ± 1.2 | 37.3 ± 1.2 | 37 ± 1.2 | 36.7 ± 1.2 | 36.7 ± 1.2 |  | CCCCCCCCCCCCOS(=O)(=O)[O-].[Li+] [lithium dodecyl sulfate] + O |
|  |  |  |  |  |  |  |  | 72.7 ± 2.3 | O [water] + CCCCCCCCCCCCOS(=O)(=O)[O-].[Li+] |
